Data on 9 compounds can be found in patent publication US9120785B2, “Pyridyl aminopyridines as Syk inhibitors” (Merck Sharp & Dohme Corp., priority 2011, dated 2015).

As usually defined, the IC50 is the concentration at which inhibition is half-maximal.

The target in this assay is recombinant human GST-Syk (Homo sapiens (Human), UniProt P43405). As to the kind of experiment: Homogeneous Time-Resolved Fluorescence (HTRF) assay for the recombinant human Syk enzyme. Type of assay: biochemical. The settings on record: recombinant human GST-Syk 5 pM, ATP 25 μM. The procedure:
Homogeneous Time-Resolved Fluorescence (HTRF) Assay for the Recombinant Human Syk Enzyme:
A recombinant GST-hSyk fusion protein was used to measure potency of compounds to inhibit human Syk activity. The recombinant human GST-Syk ([…] #08-176) (5 pM final concentration) was incubated with various concentrations of the inhibitor diluted in DMSO (0.1% final concentration) for 10 minutes at room temperature in 15 mM Tris-HCl (pH 7.5), 0.01% tween 20, 2 mM DTT in 384 well plate format. To initiate the reaction the biotinylated substrate peptide (250 nM final concentration) that contains the phosphorylation site for Syk was added with magnesium (5 mM final concentration) and ATP (25 μM final concentration). Final volume of the reaction was 10 μL. Phosphorylation of the peptide was allowed to proceed for 45 minutes at room temperature. To quench the reaction and detect the phosphorylated product, 2 nM of a Europium-anti-phosphotyrosine antibody (Perkin Elmer #AD0161) and 70 nM SA-APC (Perkin-Elmer #CR130-100) were added together in 15 mM Tris pH 7.5, 40 mM EDTA, 0.01% tween 20. Final volume of the quenching solution was 10 μL. The resulting HTRF signal was measured after 30 minutes on an EnVision (Perkin-Elmer) reader using a time-resolved fluorescence protocol.
Background: In TR-FRET formats the signal depends on donor and acceptor labels being close together.

The mark [1] stands for this setting: 10-dose titration, read-out: rhSyk (nM) IC50.
The mark [2] stands for this setting: class symbols, read-out: rhSyk activity (IC50).

Where two headings read alike, the source gives them in different places. Where only a bound is given, the exact number is not on record here.

Take `CCCCOC(=O)[C@H]1CC[C@H]([C@@](C)(O)c2ncc(-c3cc(C)cc(Nc4cc(C)c(F)cn4)n3)s2)CC1` (single isomer, unassigned) [Example 9, Enantiomer 1, butyl trans-4-[1-(5-{6-[(5-fluoro-4-methylpyridine-2-yl)amino]-4-methylpyridine-2-yl}-1,3-thiazol-2-yl)-1-hydroxyethyl]cyclohexanecarboxylate]: the IC50 was 278 nM under setting [1] and 100 to 1000 nM under setting [2].

`CCCCOC(=O)[C@H]1CC[C@H]([C@@](C)(O)c2ncc(-c3cc(C)cc(Nc4cc(C)c(F)cn4)n3)s2)CC1` (single isomer, unassigned) [Example 9, Enantiomer 2, butyl trans-4-[1-(5-{6-[(5-fluoro-4-methylpyridine-2-yl)amino]-4-methylpyridine-2-yl}-1,3-thiazol-2-yl)-1-hydroxyethyl]cyclohexanecarboxylate]: the IC50 under setting [2] was in the range of 100 to 1000 nM.

As to `CCCCOC(=O)[C@H]1CC[C@H](C(C)(O)c2ncc(-c3cc(C)cc(Nc4cc(C(F)(F)F)ccn4)n3)s2)CC1` (single isomer, unassigned) [Example 14, Step 1, butyl trans-4-{(1R or 1S)-1-hydroxy-1-[5-(4-methyl-6-{[4-(trifluoromethyl)pyridin-2-yl]amino}pyridin-2-yl)-1,3-thiazol-2-yl]ethyl}cyclohexanecarboxylate], the 50% inhibitory concentration (IC50) under setting [2] was 100 to 1000 nM.

Regarding `Cc1cc(Nc2cc(C(F)F)ccn2)nc(-c2cnc(C(C)(O)[C@H]3CC[C@H](C(=O)O)CC3)s2)c1` (single isomer, unassigned) [Example 14-4, trans-4-{1-[5-(6-{[4-(difluoromethyl)pyridin-2-yl]amino}-4-methylpyridin-2-yl)-1,3-thiazol-2-yl]-1-hydroxyethyl}cyclohexanecarboxylic acid], the IC50 is, setting by setting: under setting [1], 0.5 nM; under setting [2], not above 100 nM.

On to `Cc1cc(Nc2cc(C(F)(F)F)ccn2)nc(-c2cnc(C(O)(C3CC3)[C@H]3CC[C@H](C(=O)O)CC3)s2)c1` (single isomer, unassigned) [Example 14-17, trans-4-{cyclopropyl(hydroxy)[5-(4-methyl-6-{[4-(trifluoromethyl)pyridin-2-yl]amino}pyridin-2-yl)-1,3-thiazol-2-yl]methyl}cyclohexanecarboxylic acid], for which the IC50 under setting [2] is not above 100 nM.

As for `Cc1cc(Nc2cc(C(F)(F)F)ccn2)nc(-c2cnc(C(O)(C3CC3)[C@H]3CC[C@H](C(=O)O)CC3)s2)c1` (single isomer, unassigned) [Example 14-18, trans-4-{cyclopropyl(hydroxy)[5-(4-methyl-6-{[4-(trifluoromethyl)pyridin-2-yl]amino}pyridin-2-yl)-1,3-thiazol-2-yl]methyl}cyclohexanecarboxylic acid], the IC50 under setting [2] is not above 100 nM.

Consider `Cc1cc(Nc2cc(C(F)(F)F)ccn2)nc(-c2cnc(C(O)([C@H]3CC[C@H](C(=O)O)CC3)C(F)(F)F)s2)c1` (single isomer, unassigned) [Example 14-19, trans-4-{2,2,2-trifluoro-1-hydroxy-1-[5-(4-methyl-6-{[4-(trifluoromethyl)pyridin-2-yl]amino}pyridin-2-yl)-1,3-thiazol-2-yl]ethyl}cyclohexanecarboxylic acid], for which the IC50 under setting [2] was not above 100 nM.

As for `Cc1cc(Nc2cc(C(F)(F)F)ccn2)nc(-c2cnc(C(O)([C@H]3CC[C@H](C(=O)O)CC3)C(F)(F)F)s2)c1` (single isomer, unassigned) [Example 14-20, trans-4-{2,2,2-trifluoro-1-hydroxy-1-[5-(4-methyl-6-{[4-(trifluoromethyl)pyridin-2-yl]amino}pyridin-2-yl)-1,3-thiazol-2-yl]ethyl}cyclohexanecarboxylic acid], the IC50 under setting [2] was not above 100 nM.

With `CCC(O)(c1ncc(-c2cc(C)cc(Nc3cc(OC(C)C)ccn3)n2)s1)[C@H]1CC[C@H](C(=O)O)CC1` (single isomer, unassigned) [Example 14-21, trans-4-{1-hydroxy-1-[5-(4-methyl-6-{[4-(propan-2-yloxy)pyridin-2-yl]amino}pyridin-2-yl)-1,3-thiazol-2-yl]propyl}cyclohexanecarboxylic acid], the IC50 under setting [2] is not above 100 nM.
